Test results as given in patent publication US9339668B2, “Extract of aerial parts of oats harvested before ear emergence” (priority 2008, dated 2016).

System: Prostaglandin PG6KF1α production in stimulated human keratinocyte
Assay: Production of prostaglandin PG6KF1α induced at the keratinocyte by calcium ionophore A23187
Format: cell-based
Conditions: 10 μg/ml
Description: Principle: The keratinocyte, the most represented cell at the epidermis, plays a significant role in initiating and modulating inflammatory reactions of the skin. With the model it is possible to determine in vitro the capabilities of various molecules of modulating the production of mediators stemming from the metabolism of arachidonic acid. Prostaglandin PG6KF1α is a stable metabolite of prostacyclin PGI2, a major metabolite produced by the stimulated human keratinocyte. An acetone extract of aerial parts of oats harvested before ear emergence and its fractions were evaluated on the production of this prostaglandin induced at the keratinocyte by the calcium ionophore A23187 (stimulating the cascade of arachidonic acid).

## O=c1cc(-c2ccc(O)c(O)c2)oc2cc(O)c([C@@H]3O[C@H](CO)[C@@H](O)[C@H](O)[C@H]3OC3OC[C@@H](O)[C@@H](O)[C@@H]3O)c(O)c12 (stereo partly shown) [isoorientin-2″-O-arabinosyl]
  inhibition of PG6KF1α production: 55%
